The values below come from US4192871A, “Chemical compounds” (Glaxo Laboratories Limited, priority 1976, dated 1980).

SMILES strings stand for the structures. Counter-ions that a name gives are not always drawn.

The nature of data set [1]: anaesthetic activity tests (intravenous administration). The conditions noted are these: compound and salts. It is filed as in vivo. The text has this:
In the tests we have carried out, the compounds of the invention have been shown generally to be good anaesthetics, usually giving instantaneous induction of anaesthesia when administered intravenously. […] The compounds of the invention are of use for inducing anaesthesia which is to be maintained for example by an inhalation anaesthetic, such as ether, halothane, nitrous oxide or trichloroethylene. The compounds may also be capable of maintaining anaesthesia to a sufficient degree to enable surgical operations to be conducted without the aid of an inhalation anaesthetic, the anaesthesia being maintained if necessary by repeated or continuous administration. The compounds may have other desirable central nervous system depressant activities, for example they may be of use as sedatives.

The nature of data set [2]: dissolution of the 11β-aminoester salts in aqueous acid (Table 5 and Examples 101, 225-229). Format: physicochemical. The essentials: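 11β-Aminoester free base combined with 1 molar part of acid (citric acid as monohydrate) in water, with extra acid or prior ethanol co-evaporation in some methods. Solution made up to set weight, undissolved base collected and weighed to calculate dissolved amount. Solution pH measured.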

Another data set is described as follows: pH of the salt solutions. Format: physicochemical. Summed up:
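Aminoester free base mixed with 1 molar part acid in water, stirred or shaken, with extra acid or ethanol evaporation in some methods, then made up with water to set weight. Undissolved base collected and weighed to calculate dissolved base; solution membrane-filtered and pH measured.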

[3] abbreviates: method D: 1 molar part acid, undissolved material weighed, WT. of solution 10 g, except Ex. 136: 8.95, 140: 9.52, 165 and 167: 10.1, 190 and 198: 9.8, 191: 8.9, 194: 6.6, 204: 10.09, 219: 10.6 g.
Where [4] appears, read: aqueous solution of the salt, Table 5.
[5] abbreviates: method B: further acid added, undissolved material weighed, WT. of solution 10 g, except Ex. 130 and 141: 9.2, 142: 9.23, 143, 144, 189 and 199: 9.8, 149: 10.6, 153: 7.9, 162 and 188: 9.5, 163: 68, 166: 10.4, 168: 10.7, 169: 10.9, 183: 8.05, 184 and 201: 9.83, 185: 7.1, 186: 9.3, 192: 10.07, 193: 6.4, 195: 6.8, 196: 7, 197: 7.2, 200: 10.1, 206: 15 g.
Setting [6] is: method A: clear solution, 1 molar part acid, made up with water to WT. of solution 10 g, except Ex. 121 and 150: 12, 123: 12.3, 124: 7.5, 129: 10.3, 135 and 139: 8.95, 164: 10.35, 170: 10.4, 181: 10.04, 187: 9.5, 210: 10.2, 221: 15 g.
Where [7] appears, read: method C: ethanol evaporated, residue in water, undissolved material weighed, WT. of solution Ex. 118: 10, 120: 10.4, 148: 9.54, 152: 5.6, 154: 9.1, 155: 8.77, 156: 9.06, 157: 9.5, 158: 9.38, 159: 9.17, 179: 9.65, 180: 11.7, 182: 4.9, 202: 12.05, 213: 12, 214: 11.5, 215: 11.1, 216: 11.6, 217: 12.1 g.

For `CC(=O)[C@H]1CC[C@H]2[C@@H]3CC[C@H]4C[C@H](O)CC[C@]4(C)[C@H]3[C@@H](OC(=O)CNCC(C)(C)C)C[C@]12C` [Example 34, 11β-N-2',2'-dimethylpropylaminoacetoxy-3α-hydroxy-5α-pregnan-20-one], the “activity shown in our tests (preference grade)” value in data set [1] is on record as “particularly preferred on account of the activity shown in our tests”.
`CCCCN(C)CC(=O)O[C@H]1C[C@]2(C)[C@@H](C(C)=O)CC[C@H]2[C@@H]2CC[C@H]3C[C@H](O)CC[C@]3(C)[C@H]21` [Example 111, 11β-(N-Butyl-N-methylaminoacetoxy)-3α-hydroxy-5α-pregnan-20-one]: the “activity shown in our tests (preference grade)” value in data set [1] (listed as Compound No. 10) was “especially preferred”.
For `CCCCNCC(=O)O[C@H]1C[C@]2(C)[C@@H](C(C)=O)CC[C@H]2[C@@H]2CC[C@H]3C[C@H](O)CC[C@]3(C)[C@H]21` [Example 136], the Dissolved aminoester in data set [2] (setting [3]) is recorded as 83.5 mg. Also, the pH in the data set “pH of the salt solutions” (setting [4]) is on record as 3.60.
In the case of `CC(=O)[C@H]1CC[C@H]2[C@@H]3CC[C@H]4C[C@H](O)CC[C@]4(C)[C@H]3[C@@H](OC(=O)CN(C)CCc3ccccc3)C[C@]12C` [Example 126], the Dissolved aminoester in data set [2] (setting [5]) was determined as 56 mg. In addition, in “pH of the salt solutions” (setting [4]), the pH is reported as 2.65.
Take `CC(=O)[C@H]1CC[C@H]2[C@@H]3CC[C@H]4C[C@H](O)CC[C@]4(C)[C@H]3[C@@H](OC(=O)CN3CCCCCCC3)C[C@]12C` [Example 128]: the Dissolved aminoester in data set [2] (setting [5]) is recorded as 68 mg. The pH in “pH of the salt solutions” (setting [4]) was 2.65.
In the case of `CCCCN(CC)CC(=O)O[C@H]1C[C@]2(C)[C@@H](C(C)=O)CC[C@H]2[C@@H]2CC[C@H]3C[C@H](O)[C@@H](OCC)C[C@]3(C)[C@H]21` [Example 150], in data set [2] (setting [6]), the Dissolved aminoester turned out to be 120 mg. In addition, the pH in the data set “pH of the salt solutions” (setting [4]) came out at 3.35.
Take `CCN(CC(=O)O[C@H]1C[C@]2(C)[C@@H](C(C)=O)CC[C@H]2[C@@H]2CC[C@H]3C[C@H](O)CC[C@]3(C)[C@H]21)C(C)C` [Example 194]: the Dissolved aminoester in data set [2] (setting [3]) was 57 mg. Moreover, the pH in the data set “pH of the salt solutions” (setting [4]) stood at 3.56.
With `CCCN(CCC)CC(=O)O[C@H]1C[C@]2(C)[C@@H](C(C)=O)CC[C@H]2[C@@H]2CC[C@H]3C[C@H](O)CC[C@]3(C)[C@H]21` [Example 214], the Dissolved aminoester in data set [2] (setting [7]) turned out to be 115 mg. For the same compound, in “pH of the salt solutions” (setting [4]), the pH is on record as 3.52.
For the compound `CCN(CC)CC(=O)O[C@H]1C[C@]2(C)[C@@H](C(C)=O)CC[C@H]2[C@@H]2CC[C@H]3C[C@H](O)CC[C@]3(C)[C@H]21` [Example 152], the Dissolved aminoester in data set [2] (setting [7]) came out at 55.95 mg. Further, the pH in “pH of the salt solutions” (setting [4]) turned out to be 3.6.
For the compound `CC(=O)[C@H]1CC[C@H]2[C@@H]3CC[C@H]4C[C@H](O)CC[C@]4(C)[C@H]3[C@@H](OC(=O)CNCC(C)C)C[C@]12C` [Example 135], the Dissolved aminoester in data set [2] (setting [6]) amounted to 80.5 mg. Also, the pH in the data set “pH of the salt solutions” (setting [4]) came out at 3.27.
With `CCC(C)CNCC(=O)O[C@H]1C[C@]2(C)[C@@H](C(C)=O)CC[C@H]2[C@@H]2CC[C@H]3C[C@H](O)CC[C@]3(C)[C@H]21` (stereo partly shown) [Example 129], the Dissolved aminoester in data set [2] (setting [6]) came out at 92.3 mg. Besides, the pH in the data set “pH of the salt solutions” (setting [4]) is reported as 3.64.
Regarding `CO[C@H]1C[C@@]2(C)[C@@H](CC[C@@H]3[C@@H]2[C@@H](OC(=O)CN2CCCCC2)C[C@]2(C)[C@@H](C(C)=O)CC[C@@H]32)C[C@@H]1O` [Example 123], the Dissolved aminoester in data set [2] (setting [6]) is 122 mg. The pH in the data set “pH of the salt solutions” (setting [4]) came to 3.6.
As for `COC(=O)[C@H]1CC[C@H]2[C@@H]3CC[C@H]4C[C@H](O)CC[C@]4(C)[C@H]3[C@@H](OC(=O)CN3CCCCC3)C[C@]12C` [Example 125], in data set [2] (setting [5]), the Dissolved aminoester was 98 mg. The pH in the data set “pH of the salt solutions” (setting [4]) came to 2.82.
Consider `CC(=O)[C@H]1CC[C@H]2[C@@H]3CC[C@H]4C[C@H](O)CC[C@]4(C)[C@H]3[C@@H](OC(=O)CN(C)C(C)(C)C)C[C@]12C` [Example 201], for which the Dissolved aminoester in data set [2] (setting [5]) came to 98.3 mg. Further, in the data set “pH of the salt solutions” (setting [4]), the pH was determined as 3.12.
As to `CCO[C@H]1C[C@@]2(C)[C@@H](CC[C@@H]3[C@@H]2[C@@H](OC(=O)CN(CC)CC)C[C@]2(C)[C@@H](C(C)=O)CC[C@@H]32)C[C@@H]1O.O=C(O)CC(O)(CC(=O)O)C(=O)O` [Example 101 citrate salt, 11β-N,N-Diethylaminoacetoxy-2β-ethoxy-3α-hydroxy-5α-pregnan-20-one, citrate salt], the dissolution in saline result in data set [2] (citrate salt froth, in saline) is “dissolved readily in saline”. Further, the pH in the data set “pH of the salt solutions” (solution in 0.9% w/v saline, pH adjusted with sodium hydroxide solution) came out at 4.52; in the data set “pH of the salt solutions” (solution of the salt in saline, before any adjustment, citrate salt), 3.5; in “pH of the salt solutions” (solution of the salt in saline, before any adjustment, listed as Example 223, citrate salt), 3.63.
As to `CC(=O)[C@H]1CC[C@H]2[C@@H]3CC[C@H]4C[C@H](O)CC[C@]4(C)[C@H]3[C@@H](OC(=O)CN3CCCCCC3)C[C@]12C` [Example 159], the Dissolved aminoester in data set [2] (setting [7]) is 91.7 mg. Also, the pH in the data set “pH of the salt solutions” (setting [4]) is listed as 3.55.
Consider `CC(=O)[C@H]1CC[C@H]2[C@@H]3CC[C@H]4C[C@H](O)CC[C@]4(C)[C@H]3[C@@H](OC(=O)CNC(C)CC(C)C)C[C@]12C` (stereo partly shown) [Example 140], for which the Dissolved aminoester in data set [2] (setting [3]) was 80.7 mg. The pH in the data set “pH of the salt solutions” (setting [4]) is listed as 3.59.
Turning to `CC(=O)[C@H]1CC[C@H]2[C@@H]3CC[C@H]4C[C@](C)(O)CC[C@]4(C)[C@H]3[C@@H](OC(=O)CN3CCCCC3)C[C@]12C` [Example 133], the Dissolved aminoester in data set [2] (setting [6]) turned out to be 100 mg. Further, the pH in the data set “pH of the salt solutions” (setting [4]) stood at 3.7.
Turning to `CCCCCNCC(=O)O[C@H]1C[C@]2(C)[C@@H](C(C)=O)CC[C@H]2[C@@H]2CC[C@H]3C[C@H](O)CC[C@]3(C)[C@H]21` [Example 130], in data set [2] (setting [5]), the Dissolved aminoester is on record as 80 mg. In addition, the pH in the data set “pH of the salt solutions” (setting [4]) is listed as 3.12.
For the compound `CCCCN(C)CC(=O)O[C@H]1C[C@]2(C)[C@@H](C(C)=O)CC[C@H]2[C@@H]2CC[C@H]3C[C@H](O)CC[C@@H]3[C@H]21` [Example 228 citrate salt], the “concentration of aqueous solution of the citrate” value in data set [2] (citric acid monohydrate in water, filtered solution) was 10000 µg/mL. The pH in “pH of the salt solutions” (aqueous solution of the citrate, filtered, 9.5-10 mg/ml) is reported as 3.77.
With `CCCCOC1CC2(C)C(CCC3C4CCC(C(C)=O)C4(C)CC(OC(=O)CN4CCC(C)CC4)C32)CC1O` (stereo not shown) [Example 169], the Dissolved aminoester in data set [2] (setting [5]) stood at 80.5 mg. The pH in the data set “pH of the salt solutions” (setting [4]) is given as 2.8.
For the compound `CCN(CC)CC(=O)O[C@H]1C[C@]2(C)[C@@H](C(C)=O)CC[C@H]2[C@@H]2CC[C@H]3C[C@H](O)[C@@H](OC)C[C@]3(C)[C@H]21` [Example 124], the Dissolved aminoester in data set [2] (setting [6]) worked out at 75 mg. Besides, the pH in “pH of the salt solutions” (setting [4]) came out at 3.65.
On to `CC(=O)[C@H]1CC[C@H]2[C@@H]3CC[C@H]4C[C@H](O)CC[C@]4(C)[C@H]3[C@@H](OC(=O)CN(C)C3CC3)C[C@]12C` [Example 193], for which the Dissolved aminoester in data set [2] (setting [5]) is on record as 23 mg. Also, in “pH of the salt solutions” (setting [4]), the pH is listed as 2.46.
Consider `CCCN(CCC)CC(=O)O[C@H]1C[C@]2(C)[C@@H](C(=O)COC(C)=O)CC[C@H]2[C@@H]2CC[C@H]3C[C@H](O)CC[C@]3(C)[C@H]21` [Example 209], for which the Dissolved aminoester in data set [2] (setting [3]) was 75 mg. Also, in “pH of the salt solutions” (setting [4]), the pH is 3.2.
`CCCCN(C)CC(=O)OC1CC2(C)C(CC(C)C2C(C)=O)C2CCC3CC(O)CCC3(C)C12` (stereo not shown) [Example 177]: the Dissolved aminoester in data set [2] (setting [6]) is on record as 100 mg. Also, in “pH of the salt solutions” (aqueous solution, pH adjusted with sodium hydroxide solution), the pH worked out at 4.0.
On to `CC(=O)[C@H]1CC[C@H]2[C@@H]3CC[C@H]4C[C@H](O)CC[C@]4(C)[C@H]3[C@@H](OC(=O)CN3CC4CCC(CC4)C3)C[C@]12C` [Example 160], for which the Dissolved aminoester in data set [2] (method E: as C with further acid, WT. of solution Ex. 160: 6.12, 161: 7.8, 203: 12.7, 212: 12.125, 220: 10 g) is 80.6 mg. Moreover, the pH in the data set “pH of the salt solutions” (setting [4]) is 2.6.
